In US20260115250A1, “METHODS OF TREATING AGE-RELATED MACULAR DEGENERATION” (Character Biosciences, Inc., priority 2022, published 2026):
Peptide text beside a SMILES is read from it.

Experiments:
[1] = DMPC solubility assay, 0.5 mM DMPC (turbidity reduction); type: biochemical; conditions: FIGS. 2A-2D and 3A-3C
Procedure, shortened: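 Peptides (100 μM final, or 3.16-100 μM for titrations) incubated with 0.5 mM DMPC in water for 15 minutes at room temperature. Turbidity read as absorbance at 405 nm; EC50 from non-linear regression, mean+SD over two runs.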

[2] = DMPC solubility titration, 1 mM DMPC; type: biochemical; conditions: 3.16-100 μM peptides, 15 minutes
Method: FIGS. 4A-4B illustrate a screening assay based on DMPC solubility, measured by reducing turbidity of DMPC liposome solutions, for a subset of the peptides in FIGS. 1B-1I. FIGS. 4A-4B illustrate DMPC solubility titration curves. Peptide stocks were diluted to 200 μM in H2O (a 2× solution) and serially diluted in H2O over 4 concentrations, then 50 μL of peptide solutions were distributed in triplicate into 96-well plates. A 2 mM solution of 1,2-dimyristoyl-sn-glycero-3-phosphocholine (DMPC) in H2O was prepared, and using a multichannel pipet, 50 μL DMPC solution was rapidly added to the plate. Peptide and lipid solutions were incubated at room temperature for 15 minutes with final concentrations of 3.16-100 μM peptides and 1 mM DMPC. After 15 minutes, absorbance was read on a plate reader at 405 nm. […] Data are presented as mean+SD over two runs. Non-linear regression was used to calculate EC50 values.

[3] = system: ARPE-19 cells; experiment: ARPE-19 cholesterol import (BODIPY-Cholesterol); type: cell-based, human; conditions: ARPE-19, peptide:lipid complexes from 30 μM diluted 1:3, FIG. 16
Method: FIG. 12 and FIGS. 14A-14B illustrate the results of ARPE-19 cholesterol import testing. ARPE-19 cells were seeded on 96-well plates at 25,000 cells per well and grown to confluence. A 2× solution of 500 μM DMPC and 50 μM BODIPY-Cholesterol were prepared in serum free DMEM: F12. Peptides were diluted to 20 μM in serum free DMEM: F12 (a 2× solution). Peptides were added to lipid solution in equal parts (60 μL each) and were incubated for 1 hour at 37° C. ARPE-19 cells were serum starved in serum free DMEM: F12 for 1 hour at 37° C. Peptide: Lipid complexes (100 μL total volume per well) were transferred to ARPE-19 cells for 2 hours at 37° C. Cells were washed, fixed, and intracellular fluorescence was read on Promega GloMax at 475 nm excitation, 500-550 emission. Fluorescence values were background corrected from no treatment conditions. Data are presented as mean+SD for two runs.
FIG. 15 illustrates ARPE-19 cholesterol import titration curves for a subset of the peptides. ARPE-19 cells were seeded on 96-well plates at 25,000 cells per well and grown to confluence. A 2× solution of 500 μM DMPC and 50 μM BODIPY-Cholesterol was prepared in serum free DMEM: F12. Peptides were diluted to 0.74-60 μM in serum free DMEM: F12 (2× solutions). Peptides were added to lipid solution in equal parts (60 μL each) to create final peptide concentrations of 0.37-30 µM and incubated for 1 hour at 37° C. ARPE-19 cells were serum starved in serum free DMEM: F12 for 1 hour at 37° C. Peptide: Lipid complexes (100 μL total volume per well) were transferred to ARPE-19 cells for 2 hours at 37° C. Cells were washed, fixed, and intracellular fluorescence was read on Promega GloMax at 475 nm excitation, 500-550 emission. Fluorescence values were background corrected from no treatment conditions. […]
ARPE-19 cells were seeded on 96-well plates at 25,000 cells per well and grown to confluence. […] Cells were washed, fixed, and intracellular fluorescence was read on Promega GloMax at 475 nm excitation, 500-550 emission. Fluorescence values were background corrected from no treatment conditions. […]

[4] = system: HMC3 cells; experiment: HMC3 cholesterol efflux; type: cell-based, human

Compound: CC(C)C[C@H](NC(=O)[C@H](C)NC(=O)[C@H](CCCNC(=N)N)NC(=O)[C@H](Cc1ccccc1)NC(=O)[C@H](CCCNC(=N)N)NC(=O)[C@H](CCC(=O)O)NC(=O)[C@@H](N)Cc1c[nH]c2ccccc12)C(=O)N[C@@H](Cc1ccccc1)C(=O)N[C@@H](CCCCN)C(=O)N[C@@H](CCC(=O)O)C(=O)N[C@@H](CC(C)C)C(=O)N[C@@H](C)C(=O)N[C@@H](CC(=O)O)C(=O)N[C@@H](Cc1ccc(O)cc1)C(=O)N[C@@H](Cc1ccccc1)C(=O)N[C@@H](CCCNC(=N)N)C(=O)N[C@@H](CC(=O)O)C(=O)N[C@@H](C)C(=O)O [T-086] (H-WERFRALFKELADYFRDA-OH; N-terminus and C-terminus assumed)
- DMPC solubilizing activity [1]: significant activity
- EC50 [2]: 15.8 µM
- cholesterol import titration [3]: not able to increase cholesterol import
- cholesterol efflux titration ([4]; HMC3, 0-100 μM peptide, LXR agonist): concentration-dependent increase in cholesterol efflux
- cholesterol efflux in the presence of LXR agonist ([4]; HMC3, 20 μM peptide, 4 hours): greater cholesterol efflux
